The source of these data is patent US8367659B2, “Oxazinyl isoflavonoid compounds, medicaments and use” (Marshall Edwards, Inc., priority 2007, dated 2013).

One data set deals with cancer cell lines. The data set is described as follows: Anti-cancer activity, cancer cell lines tested as a group (MTT). The data set is classed as cell-based. Conditions: read-out: IC50 against all cancer cell lines tested.
A further data set has as its system MM200. The data set is described as follows: Anti-cancer activity, MM200 melanoma cells (MTT). Conditions: 120 h; 5 days, MTT. Format: cell-based.
Another data set has as its system HPAC. The data set is described as follows: Anti-cancer activity, HPAC pancreatic cancer cells (MTT). Format: cell-based. Conditions: Homo sapiens, 120 h, 5 days.
The subject of data set [1] is TXA2 synthesis in RA stimulated U937 cells. The experiment in a line: TXA2 synthesis in RA-stimulated U937 cells. The data set is classed as cell-based, human. Conditions: for TXA2 / TXA2 (pg): A23187; for TXA2 (pg): test compound 100 μM. How it is done: (§1) U937 cells were thawed and resuspended in RPM1 and 10% FCS at 2×10^5 cells per ml. The cells were incubated in 5% CO2 at 37° C. and expanded in growing culture to at least 6.4×10^7 total cells. The cells were then resuspended in fresh medium and cultured with […] (RA) at 2×10^5 cells per ml for a further 3 days (72 h). RA treated cells were washed 2× in serum-free RPM and resuspended in serum-free medium at 5×10^6 cells per ml. The cells were aliquotted into Teflon tubes at 1 ml per tube. Working stock solutions of each test compound were prepared at 0.1 mM, 1 mM and 10 mM as described above. For each test compound at each working dilution, 10 μl was added to 1 ml cells to achieve a final concentration of 0 (DMSO alone), 1, 10, and 100 μM for each test compound. Cells were incubated in triplicate with each concentration of test compound for 15 min at 37° C. After 15 min pre-incubation, each 1 ml tube of cells received 5 μl of a […] solution of the calcium ionophore A23187 (to achieve 0.5 μM A23187). Incubation at 37° C. was continued for a further 30 min. After incubation, supernatants were collected by centrifugation at 2000 rpm for 10 min and stored at −20° C. until required for assay.

A further data set relates to unstimulated lymphocytes. The experiment in a line: Unstimulated lymphocytes, viable cell number (MTT). Format: cell-based, Skh-1:HR 1 (hairless) mice. The conditions noted are these: 10 μM; absence of mitogenic stimulation. How it is done: Male Skh-1:HR 1 (hairless) mice, approximately six weeks old were killed by cervical dislocation. Single cell suspensions were made from the spleen and erythrocytes were lysed in buffer (0.14 M NH4Cl, 17 mM Tris, pH 7.2). The remaining splenocytes were cultured in RPMI-1640 (Gibco) supplemented with 10% (v:v) FBS, 200 mM L-glutamine, penicillin/streptomycin and […] 2-mercaptoethanol. Splenocytes were added to quadruplicate wells containing either concanavalin A (ConA, Sigma-Aldrich—0.4 μg/well), LPS (Sigma-Aldrich—1 μg/well) or no mitogen, as well 10 μM of test compound in DMSO. Samples were analysed after 3 days incubation at 37° C. in 5% CO2 in air. Methylthiazoletetrazolium (MTT) is bioreduced by viable cells into a coloured formazan product that is soluble in DMSO. Thus the quantity of formazan product is directly proportional to the number of living cells in culture, and can be measured using a spectrophotometer at 570 nm. MTT was added to each well, incubated for a further 4 hrs and then colour developed with 0.04 N HCl in isopropanol. Culture supernatants were stored after collection at −80° C. and analysed by ELISA (BD Biosciences) for IFN-γ (a Th-1 cytokine) and for T cells alone, IL-6 (a Th-2 cytokine).

The test system of data set [2] is PGE2 synthesis in RA-stimulated U937 cells. The experiment in a line: PGE2 synthesis in RA-stimulated U937 cells. The data set is classed as cell-based, human. How it is done:
as §1

A further data set concerns NCI-H460. The experiment in a line: Anti-cancer activity, NCI-H460 large cell lung cancer cells (MTT). Format: cell-based. The conditions noted are these: Homo sapiens, NCI-H460, 120 h, 5 days, read-out: IC50 μM, NCI-H460 Lung (NSCLC).
Data set [3] deals with neonatal foreskin fibroblasts (NFF). The experiment in a line: Toxicity to normal cells, neonatal foreskin fibroblasts. The data set is classed as cell-based. Conditions: Fibroblast. How it is done: IC50 values were determined for each cell line. Cells were seeded in 96-well plates at an appropriate cell density as determined from growth kinetics analysis and cultured for 5 days in the absence and presence of the test compounds. Cell proliferation was assessed after the addition of 20 μl of 3-4,5 dimethylthiazol-2,5-diphenyl tetrazolium bromide (MTT, 2.5 mg/ml in PBS, Sigma) for 3-4 hrs at 37° C. according to manufacturer's instructions. IC50 values were calculated from semi-log plots of % of control proliferation on the y-axis against log dose on the x-axis.
The neonatal foreskin fibroblasts (NFF) were a gift from Dr. Peter Parsons (Queensland Institute of Medical Research). Rabbit kidney (RK-13) cells were obtained from Miller Whalley (Macquarie University). Both cell lines were cultured in RPMI supplemented with 10% FCS(CSL, Australia), penicillin (100 U/ml), streptomycin ([…]), L-glutamine (2 mM) and sodium bicarbonate (1.2 g/L), and cultured at 37° C. in a humidified atmosphere of 5% CO2. IC50 values were determined as described above.

In the next data set the test system is CP70. The data set is described as follows: Anti-cancer activity, CP70 ovarian cancer cells (MTT). Format: cell-based. Conditions: 120 h, 5 days.
The nature of data set [4]: Free radical scavenging with DPPH. The conditions noted are these: for EC50: DPPH, read-out: Free radical scavenging ability EC50. In a few lines: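 Compounds reacted with DPPH in ethanol for 20 min, screened at 100 μM, and absorbance at 517 nm compared with a DPPH-ethanol blank. IC50 was taken as the concentration giving a 0.6 absorbance change, with 1.2 units representing total scavenging.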
In general terms: The DPPH test is a chemical assay of radical scavenging.

Setting [5] is: normal, non-transformed cells, read-out: IC50 μM, NFF Fibroblast.
Setting [6] is: read-out: toxicity to normal fibroblast cell line / NFFs (IC50).

“Also recorded” adds a separate entry of the source. Where two headings read alike, the source gives them in different places. Marks after values point to notes of the source that are not given here.

On to `Oc1ccc(C2=Cc3cc4c(cc3OC2)OCN(Cc2ccccc2)C4)cc1` [Compound 1, 4-(3-Benzyl-2,3,4,8-tetrahydrochromeno[6,7-e][1,3]oxazin-7-yl)phenol], for which the IC50 was 5 to 20 µM in the data set on cancer cell lines; 6.1 ± 1.6 µM with MM200; 18.2 ± 8.1 µM with HPAC; 4.61 µM in the data set with NCI-H460; 15.1 µM in data set [3] (setting [5]); around 15 µM in data set [3] (setting [6]). The molecule also displayed an IC50 with CP70 of 5.51 ± 2.6 µM. Further, the “TXA2” value in data set [1] (test compound 1 μM) came to 48.720 ± 2.927 pg; in [1] (test compound 10 μM) it was 17.421 ± 5.747 pg. Moreover, in data set [1], the “TXA2 (pg)” value was 6.397 ± 0.557^a pg. Moreover, the “reduction of viable cell numbers” value in the data set on unstimulated lymphocytes was “approximately 50%”. Besides, the “PGE2” value is given as 1.431 ± 0.154 pg in data set [2] (test compound 1 μM, A23187); 0.702 ± 0.237 pg in data set [2] (test compound 10 μM, A23187); 0.555 ± 0.064 pg in data set [2] (test compound 100 μM, A23187).

For the molecule `Oc1cccc(C2=Cc3ccc(O)cc3OC2)c1` [Compound 37-DHE, 3′,7-dihydroxy-isoflav-3-ene, reference compound], in data set [4] (100 μM, ΔAbs>0.3 criterion), the “free radical scavenging / antioxidant activity in DPPH screen” value is reported as “free radical scavenging activity; also recorded: potent free radical scavenging ability”. Besides, the EC50 (in general, the midpoint of the concentration-response curve) in [4] (comparative, Table 13) turned out to be 55 µM.

Consider `CC(c1ccccc1)N1COc2cc3c(cc2C1)C=C(c1ccc(O)cc1)CO3` (stereo not drawn) [Compound 2, 4-(3-(1-Phenylethyl)-2,3,4,8-tetrahydrochromeno[6,7-e][1,3]oxazin-7-yl)phenol], for which the IC50 in the data set on cancer cell lines is 5 to 20 µM; in the data set on MM200 it was 4.76 ± 1.3 µM; with HPAC it was 18.3 ± 11 µM; in the data set on NCI-H460 it was 8.77 ± 3.7 µM; in data set [3] (setting [5]), 33.2 µM; in [3] (setting [6]), above 30 µM. The IC50 in the data set with CP70 came to 8.1 ± 3 µM. Also, the “effect on TXA2 synthesis” value in [1] (100 μM) is recorded as “inhibit TXA2 synthesis”. The “TXA2” value in [1] (test compound 1 μM) turned out to be 30.680 ± 2.708 pg; in [1] (test compound 10 μM), 21.298 ± 0.914 pg. In addition, the “TXA2 (pg)” value in [1] is given as 2.313 ± 0.113^a pg. For the same molecule, the “reduction of viable cell numbers” value in the data set on unstimulated lymphocytes was “approximately 50%”. Moreover, the “effect on PGE2 synthesis” value in data set [2] was “inhibit PGE2 synthesis”. Also, the “PGE2” value in data set [2] (test compound 1 μM, A23187) stood at 1.303 ± 0.044 pg; in [2] (test compound 10 μM, A23187), 0.948 ± 0.111 pg. For the same molecule, the “PGE2 (pg)” value in data set [2] (test compound 100 μM, A23187) is 0.158 ± 0.027^a pg. Moreover, in [4] (20 minutes, absorbance 517 nm, Table 4), the EC50 was 21.4 µM.
